ChEMBL document CHEMBL5625161, “Pharmacological activity and mechanism of pyrazines” (Eur J Med Chem, 2023)
Converted amounts (≈) assume the structure as drawn.

What was measured:
[1] = test system: CCRF-CEM; assay: Growth inhibition of human CCRF-CEM cells; format: functional, cell-based; conditions: pooled result: one value given for 60 cell lines, strains, targets or settings
[2] = test system: LN-229; assay: Cytotoxicity against human LN-229 cells assessed as reduction in cell growth incubated for 72 hrs by Celltiter-Glo assay; format: functional, cell-based; conditions: LN-229, 72 h
[3] = test system: BJ; assay: Cytotoxicity against human BJ cells assessed as cell growth inhibition measured after 72 hrs by Celltiter-Glo assay; format: functional, cell-based
[4] = test system: NCI-H460; assay: Antiproliferative activity against human NCI-H460 cells assessed as reduction in cell growth incubated for 48 hrs by CCK-8 assay; format: functional, cell-based; conditions: NCI-H460, 48 h
[5] = test system: MCF7; assay: Antiproliferative activity against human MCF7 cells assessed as reduction in cell growth incubated for 48 hrs by CCK-8 assay; format: functional, cell-based; conditions: MCF7, 48 h
[6] = test system: DU-145; assay: Antiproliferative activity against human DU-145 cells assessed as reduction in cell growth incubated for 48 hrs by CCK-8 assay; format: functional, cell-based; conditions: DU-145, 48 h
[7] = Antiproliferative activity against human PaTu8988 cells assessed as reduction in cell viability measured after 72 hrs by MTT assay; format: functional, cell-based; conditions: PaTu8988, 72 h
[8] = test system: SMMC-7721; assay: Antiproliferative activity against human SMMC-7721 cells assessed as reduction in cell viability measured after 72 hrs by MTT assay; format: functional, cell-based; conditions: SMMC-7721, 72 h
[9] = test system: SGC-7901; assay: Antiproliferative activity against human SGC-7901 cells assessed as reduction in cell viability measured after 72 hrs by MTT assay; format: functional, cell-based; conditions: SGC-7901, 72 h
[10] = test system: A-375; assay: Antiproliferative activity against human A-375 cells assessed as reduction in cell growth by MTT assay; format: functional, cell-based
[11] = test system: MIA PaCa-2; assay: Antiproliferative activity against human MIA PaCa-2 cells assessed as reduction in cell growth by MTT assay; format: functional, cell-based
[12] = test system: BGC-823; assay: Antiproliferative activity against human BGC-823 cells assessed as reduction in cell growth by MTT assay; format: functional, cell-based
[13] = test system: MCF7; assay: Antiproliferative activity against human MCF7 cells assessed as reduction in cell growth by MTT assay; format: functional, cell-based
[14] = test system: HCT-116; assay: Antiproliferative activity against human HCT-116 cells assessed as reduction in cell growth by MTT assay; format: functional, cell-based
[15] = test system: Huh-7; assay: Antiproliferative activity against human Huh-7 cells assessed as reduction in cell viability incubated for 48 hrs by MTT assay; format: functional, cell-based; conditions: Huh-7, 48 h
[16] = test system: A549; assay: Antiproliferative activity against human A549 cells assessed as inhibition of cell growth at 10 uM relative to control; format: functional; design: scale not given: the % may be the effect or the level left
[17] = test system: Caco-2; assay: Growth inhibition of human Caco-2 cells measured after 48 hrs by SRB assay; format: functional
[18] = test system: MCF7; assay: Growth inhibition of human MCF7 cells measured after 48 hrs by SRB assay; format: functional
[19] = Cytotoxicity against African green monkey Vero cells incubated for 48 hrs by SRB colorimetric assay; format: toxicity, cell-based, Chlorocebus sabaeus
[20] = test system: NCI-H460; assay: Growth inhibition of human NCI-H460 cells measured after 48 hrs by SRB assay; format: functional
[21] = test system: AGS; assay: Growth inhibition of human AGS cells measured after 48 hrs by SRB assay; format: functional
[22] = test system: HT-29; assay: Antiproliferative activity against human HT-29 cells assessed as reduction in cell viability incubated for 72 hrs by MTT assay; format: functional, cell-based; conditions: HT-29, 72 h
[23] = Antiproliferative activity against mouse Ba/F3 EML4-ALK cells assessed as inhibition of cell growth; format: functional, cell-based
[24] = test system: A549; assay: Cytotoxicity against human A549 cells assessed as reduction in cell growth measured after 24 hrs by MTT assay; format: functional, cell-based; conditions: A549, 24 h
[25] = test system: SW-620; assay: Antiproliferative activity against human SW620 cells assessed as reduction in cell viability incubated for 72 hrs by MTT assay; format: functional, cell-based; conditions: SW-620, 72 h
[26] = test system: HCT-116; assay: Antiproliferative activity against human HCT-116 cells assessed as reduction in cell viability incubated for 72 hrs by MTT assay; format: functional, cell-based; conditions: HCT-116, 72 h
[27] = test system: T-24; assay: Antiproliferative activity against human T-24 cells assessed as inhibition of cell growth incubated for 72 hrs by MTT assay; format: functional, cell-based; conditions: T-24, 72 h
[28] = Antiproliferative activity against human WI-38 cells assessed as cell growth inhibition measured after 72 hrs by MTT assay; format: toxicity, cell-based
[29] = test system: MGC-803; assay: Antiproliferative activity against human MGC-803 cells assessed as inhibition of cell growth incubated for 72 hrs by MTT assay; format: functional, cell-based; conditions: MGC-803, 72 h
[30] = test system: HeLa; assay: Antitumor activity against human HeLa cells assessed as cell growth inhibition incubated for 72 hrs by MTT assay; format: functional, cell-based
[31] = test system: L02; assay: Antiproliferative activity against human HL7702 cells assessed as cell growth inhibition measured after 72 hrs by MTT assay; format: functional, cell-based; conditions: L02, 72 h

## c1cn2cc(-c3ccc4ncn(C5CCCCC5)c4c3)nc(-c3ccc4ncn(C5CCCCC5)c4c3)c2n1
[1]
  IC50: 0.81 µM

## N#Cc1cncc(Cl)n1
[2]
  IC50: 18.2 µM
[3]
  IC50: 95.7 µM

## C[C@@H]1[C@]2(O[C@H]3C=C4[C@@H]5CC[C@H]6Cc7nc8c(nc7C[C@]6(C)[C@H]5C[C@@H](O)[C@]4(C)[C@]31O)C[C@@H]1CC[C@H]3C4=CC[C@@H]5[C@H](C)[C@@]6(OC[C@]45C(=O)C[C@@H]3[C@@]1(C)C8)OC(C)(C)C[C@H]6O)O[C@](C)(CO)C[C@H]2O [CEPHALOSTATIN 1]
[4]
  IC50: 0.044 nM
[5]
  IC50: 0.099 nM
[6]
  IC50: 0.00011 µM

## COc1cccc(/C=N/C(=O)c2cnccn2)c1O
[7]
  IC50: 0.3 µM
[8]
  IC50: 0.3 µM
[9]
  IC50: 0.3 µM

## COc1ccc(OCCN2CCn3nnc(-c4cc(C(C)C)c(O)cc4O)c3C2)cc1
[10]
  IC50: 2.29 µM
[11]
  IC50: 6.74 µM
[12]
  IC50: 4.15 µM
[13]
  IC50: 5.58 µM
[14]
  IC50: 10.2 µM

## N=C(NC(=O)c1nc(Cl)c(N)nc1N)NC(=O)c1c(Cl)cccc1Cl
[15]
  IC50: 12.8 µM

## Cc1cc(=O)oc2cc(Oc3nc(-c4ccc(Cl)cc4)cn4c(-c5ccc(Cl)cc5)cnc34)ccc12
[16]
  Activity: 90.12%

## COC(=O)c1sc2nccnc2c1Nc1cc(OC)cc(OC)c1
[17]
  GI50: 87 µM
[18]
  GI50: 41 µM
[19]
  IC50 at 48 h: 144 µM
[20]
  GI50: 53 µM

## COC(=O)c1sc2nccnc2c1Nc1ccc(OC)c(OC)c1
[17]
  GI50: 8 µM
[21]
  GI50: 9.2 µM
[19]
  IC50 at 48 h: 53 µM

## CNCc1ccc(-c2cc(-c3nc(-c4ccc(S(=O)(=O)C(C)C)cc4)cnc3N)on2)cc1 [BERZOSERTIB]
[22]
  IC50: 0.019 µM

## CCc1nc(C(N)=O)c(Nc2ccc3c(c2)CCN(C2CC=CC2)CC3)nc1NC1CCOCC1
[23]
  IC50: 0.0012 µM

## N/C(=N\N=C\c1ccccc1)c1cnccn1
[24]
  IC50: 0.173 µg/mL (≈ 0.768 µM)

## O=C(Nc1ccc2ccccc2c1)c1c(Cc2ccccc2)n2nc3ccccc3c2c(=O)n1C1CC1
[25]
  IC50: 1.8 µM
[26]
  IC50: 1.3 µM

## Clc1ccc(-c2nc3oc4ccccc4c3nc2-c2ccc(Cl)cc2)cc1
[27]
  IC50: 12.5 µM
[28]
  IC50 at 72 h: > 40 µM
[29]
  IC50: 20.2 µM
[30]
  IC50: 10 µM
[31]
  IC50: 25.4 µM
